From ChEMBL document CHEMBL4219215, “Discovery of {4-[4,9-bis(ethyloxy)-1-oxo-1,3-dihydro-2H-benzo[f]isoindol-2-yl]-2-fluorophenyl}acetic acid (GSK726701A), a novel EP4 receptor partial agonist for the treatment of pain” (Bioorg Med Chem Lett, 2018)
Activity calls are given as the source filed them. The rule behind the calls is not given here.

Assays:
[1] = target: T1, Prostaglandin E2 receptor EP4 subtype (Homo sapiens, UniProt P35408); test: Displacement of [3H]PGE2 from human EP4 receptor expressed in HEK 293 (EBNA) cell membranes incubated for 60 mins by scintillation counting method
[2] = target: T1, Prostaglandin E2 receptor EP4 subtype; test: Partial agonist activity at human EP4 receptor expressed in HEK293-AEQ17 cells assessed as cAMP accumulation by aequorin luminescence assay; assay type: functional, cell-based
[3] = test system: Rattus norvegicus; test: Analgesic activity in rat model of Freund's complete adjuvant-induced acute inflammatory pain assessed as reversal of FCA-induced hypersensitivity at 10 mg/kg, po relative to untreated control; assay type: functional
[4] = test system: Rattus norvegicus; test: Analgesic activity in rat model of Freund's complete adjuvant-induced acute inflammatory pain assessed as reversal of FCA-induced hypersensitivity at 3 mg/kg, po relative to untreated control; assay type: functional
[5] = test system: Rattus norvegicus; test: Analgesic activity in rat model of chronic joint pain assessed as reversal of pain by measuring weight bearing level at 30 mg/kg, po dosed twice daily for 5 days relative to untreated control; conditions: 120 h, read-out: INH
[6] = Half life in rat at 1 mg/kg, po; assay type: ADME, organism-based; conditions: in vivo
[7] = test system: Rattus norvegicus; test: Analgesic activity in rat model of chronic constriction injury-induced neuropathic pain assessed as reversal of mechanical allodynia at 30 mg/kg dosed twice daily for 8 days relative to untreated control; assay type: functional; conditions: 192 h
[8] = target: Cytochrome P450 2C19 (Homo sapiens, UniProt P33261); test: Inhibition of human recombinant CYP2C19; assay type: ADME
[9] = target: Cytochrome P450 2D6 (Homo sapiens, UniProt P10635); test: Inhibition of human recombinant CYP2D6; assay type: ADME
[10] = target: Cytochrome P450 2C9 (Homo sapiens, UniProt P11712); test: Inhibition of human recombinant CYP2C9; assay type: ADME
[11] = Intrinsic clearance in rat liver microsomes; assay type: ADME, microsome
[12] = target: T2, Cytochrome P450 3A4 (Homo sapiens, UniProt P08684); test: Inhibition of human recombinant CYP3A4 using 7BQ substrate; assay type: ADME
[13] = Intrinsic clearance in human liver microsomes; assay type: ADME, microsome
[14] = target: T2, Cytochrome P450 3A4; test: Inhibition of human recombinant CYP3A4 using DEF substrate; assay type: ADME
[15] = test system: Rattus norvegicus; test: Volume of distribution at steady state in rat at 1 mg/kg, […]; assay type: ADME, organism-based; conditions: in vivo
[16] = target: T3, Cytochrome P450 1A2 (Homo sapiens, UniProt P05177); test: Inhibition of human recombinant CYP1A2; assay type: ADME
T3 sequence (P05177 whole entry): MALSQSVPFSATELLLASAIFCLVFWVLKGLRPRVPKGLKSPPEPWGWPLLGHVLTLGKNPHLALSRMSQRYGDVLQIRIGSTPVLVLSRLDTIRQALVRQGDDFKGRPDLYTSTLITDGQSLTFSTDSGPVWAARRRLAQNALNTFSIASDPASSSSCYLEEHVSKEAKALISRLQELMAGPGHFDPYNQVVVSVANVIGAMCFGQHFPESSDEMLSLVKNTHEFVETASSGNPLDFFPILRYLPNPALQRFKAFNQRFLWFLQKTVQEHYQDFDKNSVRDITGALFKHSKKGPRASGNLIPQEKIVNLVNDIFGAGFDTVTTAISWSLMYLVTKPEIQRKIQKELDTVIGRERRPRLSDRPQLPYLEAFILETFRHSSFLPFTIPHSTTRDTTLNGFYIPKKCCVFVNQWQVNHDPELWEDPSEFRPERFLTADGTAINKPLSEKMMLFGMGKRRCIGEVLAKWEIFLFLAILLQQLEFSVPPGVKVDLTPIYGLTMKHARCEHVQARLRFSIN

[17] = Blood clearance in rat at 1 mg/kg, po; assay type: ADME, organism-based
[18] = Total drug level in blood of orally dosed rat model of Freund's complete adjuvant-induced acute inflammatory pain assessed as reduction in reversal of hypersensitivity; assay type: ADME, organism-based; conditions: in vivo, po, read-out: Drug uptake
[19] = test system: Rattus norvegicus; test: Analgesic activity in orally dosed rat model of Freund's complete adjuvant-induced acute inflammatory pain assessed as reversal of FCA-induced hypersensitivity; assay type: functional; conditions: po
[20] = test system: Rattus norvegicus; test: Analgesic activity in rat model of Freund's complete adjuvant-induced acute inflammatory pain assessed as reversal of FCA-induced hypersensitivity at 10 mg/kg, po pre-challenged with 3 mg/kg, po selective EP4 antagonist GW627368X; assay type: functional, organism-based

T1 sequence (P35408 whole entry): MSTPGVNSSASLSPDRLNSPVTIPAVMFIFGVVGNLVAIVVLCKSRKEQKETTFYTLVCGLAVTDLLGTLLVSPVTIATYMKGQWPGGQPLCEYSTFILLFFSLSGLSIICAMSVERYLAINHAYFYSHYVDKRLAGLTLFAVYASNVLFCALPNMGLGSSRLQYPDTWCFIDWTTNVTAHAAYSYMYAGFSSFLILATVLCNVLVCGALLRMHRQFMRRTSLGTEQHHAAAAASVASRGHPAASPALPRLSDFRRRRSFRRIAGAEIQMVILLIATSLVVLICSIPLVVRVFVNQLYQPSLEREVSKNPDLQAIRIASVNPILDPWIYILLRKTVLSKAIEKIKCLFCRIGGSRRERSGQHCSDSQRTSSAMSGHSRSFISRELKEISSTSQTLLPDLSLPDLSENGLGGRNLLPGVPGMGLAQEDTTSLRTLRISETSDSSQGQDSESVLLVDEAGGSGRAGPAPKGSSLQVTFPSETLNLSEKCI
T2 sequence (P08684 whole entry): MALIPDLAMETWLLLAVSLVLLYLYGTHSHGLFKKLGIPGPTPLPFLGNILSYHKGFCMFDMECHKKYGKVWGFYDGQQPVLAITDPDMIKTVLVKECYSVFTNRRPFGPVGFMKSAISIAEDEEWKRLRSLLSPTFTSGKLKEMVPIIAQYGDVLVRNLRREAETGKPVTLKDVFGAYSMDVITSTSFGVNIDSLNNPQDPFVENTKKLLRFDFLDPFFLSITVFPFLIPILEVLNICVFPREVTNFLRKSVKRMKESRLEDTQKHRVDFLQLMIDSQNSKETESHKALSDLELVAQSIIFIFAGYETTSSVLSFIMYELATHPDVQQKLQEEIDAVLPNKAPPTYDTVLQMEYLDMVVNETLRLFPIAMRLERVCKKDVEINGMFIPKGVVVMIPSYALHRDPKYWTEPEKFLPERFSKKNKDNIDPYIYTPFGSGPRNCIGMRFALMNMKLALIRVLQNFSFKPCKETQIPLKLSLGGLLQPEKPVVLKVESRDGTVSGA
Cytochrome P450 2C9, sequence (P11712 whole entry): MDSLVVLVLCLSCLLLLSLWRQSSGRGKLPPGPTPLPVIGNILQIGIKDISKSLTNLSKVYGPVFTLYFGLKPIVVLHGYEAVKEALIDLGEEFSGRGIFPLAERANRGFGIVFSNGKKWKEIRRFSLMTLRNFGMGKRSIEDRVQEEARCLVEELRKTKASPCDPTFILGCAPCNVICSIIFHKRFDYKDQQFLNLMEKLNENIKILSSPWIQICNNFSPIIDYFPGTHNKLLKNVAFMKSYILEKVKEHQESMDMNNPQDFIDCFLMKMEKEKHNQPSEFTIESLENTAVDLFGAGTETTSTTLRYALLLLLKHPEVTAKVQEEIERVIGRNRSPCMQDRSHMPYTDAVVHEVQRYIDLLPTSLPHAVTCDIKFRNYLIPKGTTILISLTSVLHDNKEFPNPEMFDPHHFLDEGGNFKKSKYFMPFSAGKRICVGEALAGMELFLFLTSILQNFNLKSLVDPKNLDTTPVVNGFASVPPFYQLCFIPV
Cytochrome P450 2C19, sequence (P33261 whole entry): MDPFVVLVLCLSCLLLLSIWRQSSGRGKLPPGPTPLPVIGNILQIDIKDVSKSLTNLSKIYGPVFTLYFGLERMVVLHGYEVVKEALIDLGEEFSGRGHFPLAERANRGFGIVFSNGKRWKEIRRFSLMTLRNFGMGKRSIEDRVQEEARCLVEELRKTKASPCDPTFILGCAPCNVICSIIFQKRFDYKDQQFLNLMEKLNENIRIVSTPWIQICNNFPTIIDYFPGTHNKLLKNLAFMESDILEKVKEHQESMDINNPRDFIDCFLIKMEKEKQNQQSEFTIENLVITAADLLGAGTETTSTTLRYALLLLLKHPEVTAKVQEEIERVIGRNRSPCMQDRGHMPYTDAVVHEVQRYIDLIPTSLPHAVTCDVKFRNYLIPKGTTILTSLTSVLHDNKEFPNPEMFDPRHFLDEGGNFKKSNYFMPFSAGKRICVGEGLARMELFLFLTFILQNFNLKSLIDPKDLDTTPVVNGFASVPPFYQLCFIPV
Cytochrome P450 2D6, sequence (P10635 whole entry): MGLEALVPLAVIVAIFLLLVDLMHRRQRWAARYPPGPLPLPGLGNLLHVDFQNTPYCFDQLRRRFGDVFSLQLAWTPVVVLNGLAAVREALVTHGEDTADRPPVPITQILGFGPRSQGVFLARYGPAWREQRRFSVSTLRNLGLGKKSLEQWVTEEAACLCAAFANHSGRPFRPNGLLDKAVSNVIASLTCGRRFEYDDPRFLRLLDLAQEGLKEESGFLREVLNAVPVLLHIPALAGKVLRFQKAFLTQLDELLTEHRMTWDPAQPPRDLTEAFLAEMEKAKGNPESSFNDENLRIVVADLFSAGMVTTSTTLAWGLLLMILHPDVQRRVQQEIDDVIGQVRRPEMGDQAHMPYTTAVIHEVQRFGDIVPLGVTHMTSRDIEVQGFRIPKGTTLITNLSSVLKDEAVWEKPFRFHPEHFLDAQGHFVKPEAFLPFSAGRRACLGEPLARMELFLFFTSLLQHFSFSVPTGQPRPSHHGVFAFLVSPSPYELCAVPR

SMILES	Ki [1] [nM]	EC50 [2] [nM]	other results
CCOc1c2c(c(OCC)c3ccccc13)C(=O)N(c1ccc(C(C)C(=O)O)cc1)C2 (stereo unspecified)	200	> 1000	
CCOc1c2c(c(OCC)c3cc(F)ccc13)C(=O)N(c1ccc(CC(=O)O)cc1)C2=O		79.4	
CCOc1c2c(c(OCC)c3ccccc13)C(=O)N(c1ccc(CC(=O)O)cc1Br)C2		5.01	Activity [3]: 47%
CCOc1c2c(c(OCC)c3ccccc13)C(=O)N(c1ccc(CC(=O)O)c(Cl)c1)C2		> 1000	
CCCCOc1c2c(c(OCCCC)c3ccccc13)C(=O)N(c1ccc(CC(=O)O)cc1)C2	2000	200	
CCOc1c2c(c(OCC)c3ccccc13)C(=O)N(c1ccc(CC(=O)O)cc1C)C2		7.94	Activity [4]: 19%
CCOc1c2c(c(OCC)c3ccccc13)C(=O)N(c1ccc(CC(=O)O)cc1C(F)(F)F)C2		50.1	
Cc1ccc(-c2cc(C(F)(F)F)nn2-c2ccc(S(N)(=O)=O)cc2)cc1 [CELECOXIB]			inhibition in vivo at 30 mg/kg [5]: 100%; Activity [3]: Active
CCOc1c2c(c(OCC)c3ccccc13)C(=O)N(c1ccc(CC(=O)O)cc1Cl)C2		5.01	Activity [4]: 14%
CCOc1c2c(c(OCC)c3ncccc13)C(=O)N(c1ccc(CC(=O)O)cc1)C2=O	31.6	> 1000	
CCCCCCOc1c2c(c(OCCCCCC)c3ccccc13)C(=O)N(c1ccc(CC(=O)O)cc1)C2	> 6310	> 1000	
CCOc1c2c(c(OCC)c3ccccc13)C(=O)N(c1ccc(CC(=O)O)cc1OC)C2		10	
CCOc1c2c(c(OCC)c3ccccc13)CN(c1ccc(CC(=O)O)cc1)C2	631	251	
CC(C)Oc1c2c(c(OC(C)C)c3ccccc13)C(=O)N(c1ccc(CC(=O)O)cc1)C2	398	39.8	
CCOc1c2c(c(OCC)c3ccccc13)C(=O)N(c1ccc(CC(=O)O)c(C)c1)C2		> 1000	
CCOc1c2c(c(OCC)c3cc(C)ccc13)C(=O)N(c1ccc(CC(=O)O)cc1)C2=O	158	20	half-life [6]: 31.7 h; Activity [3]: 76%
COc1c2c(c(OC)c3ccccc13)C(=O)N(c1ccc(CC(=O)O)cc1)C2=O		200	
NCC1(CC(=O)O)CCCCC1 [GABAPENTIN]			inhibition in vivo at 30 mg/kg [7]: 100%
CCCOc1c2c(c(OCCC)c3ccccc13)C(=O)N(c1ccc(CC(=O)O)cc1)C2	631	126	
CCOc1c2c(c(OCC)c3ccccc13)C(=O)N(c1ccc(CC(=O)O)cc1)C2=O	158	25.1	IC50 [8]: > 100000 nM; IC50 [9]: 42000 nM; IC50 [10]: > 100000 nM; CLH [11]: < 0.5 mL/min/g; IC50 [12]: > 100000 nM; CLH [13]: < 0.5 mL/min/g; IC50 [14]: > 100000 nM; Vdss [15]: 0.28 L/kg; half-life [6]: 19.9 h; IC50 [16]: 65000 nM; CL/F [17]: 0.2 mL/min/kg
CCOc1c2c(c(OCC)c3ccccc13)C(=O)N(c1ccc(CC(=O)O)cc1)C2	79.4	20	concentration [18]: 5 to 11 µM; ED50 [19]: 1.5 mg/kg; Vdss [15]: 0.3 L/kg; half-life [6]: 8.5 h; CL/F [17]: 0.6 mL/min/kg; Activity [20]: inactive
CCOc1c2c(c(OCC)c3ccccc13)C(=O)N(c1ccc(CC(=O)O)cc1F)C2		3.98	Activity [4]: 5%
